Patent US20220402948A1, “EGFR INHIBITOR, COMPOSITION AND PREPARATION METHOD THEREFOR” (BETTA PHARMACEUTICALS CO., LTD., priority 2019, published 2022)

How the values were obtained:
[1] = molecular target: Ba/F3-EGFR wild-type cell line (Homo sapiens, UniProt P00533); test: Ba/F3-EGFR wild-type cell proliferation assay (CellTiter Glo, 72 hours); format: cell-based; details: Table 2, read-out: EGFR WT IC50
Protocol: (§1) Cell line: Ba/F3 cells with EGFR Δ19del/T790M/C797S mutation gene stably overexpressed named Ba/F3-Δ119del/T90M/C797S, and A431 and Ba/F3-EGFR wild-type cell line.
(§2) a) Centrifuge the growth cells in logarithmic phase at 1000 rpm for 5 minutes, resuspend the cells in culture medium, and then count the cells;
(§3) b) Inoculate the cells into a 96-well cell culture plate with a density of 2000 cells/well;
(§4) b) Incubate cells in an incubator for another 72 hours.
(§5) a) Take out the 96-well cell culture plate and add 50 μl CTG reagent (CellTiter Glo kit, promega, Cat #G7573);
(§6) b) Shake the plate for 2 minutes and let cool at room temperature for 10 minutes;
(§7) c) Read luminous signal value with PerkinElmer reader,
(§8) Analysis of Experimental Data
(§9) The data were analyzed by GraphPad Prism 6.0 software to obtain the fitting curve of compound activity.
(§10) Y=Min+(Max−Min)/(1+10^((Log IC50−X)*slope));
(§11) X: Logarithm of compound concentration; Y: luminous signal.

IGF1R = IGF1R (Homo sapiens, UniProt P08069); test: IGF1R kinase test (mobility variation analysis, Caliper EZ Reader); format: biochemical; details: kinase enzymatic activity, Table 1; read-out: EGFR IGF1R IC50
Sequence of IGF1R (P08069 31-1367, species assumed): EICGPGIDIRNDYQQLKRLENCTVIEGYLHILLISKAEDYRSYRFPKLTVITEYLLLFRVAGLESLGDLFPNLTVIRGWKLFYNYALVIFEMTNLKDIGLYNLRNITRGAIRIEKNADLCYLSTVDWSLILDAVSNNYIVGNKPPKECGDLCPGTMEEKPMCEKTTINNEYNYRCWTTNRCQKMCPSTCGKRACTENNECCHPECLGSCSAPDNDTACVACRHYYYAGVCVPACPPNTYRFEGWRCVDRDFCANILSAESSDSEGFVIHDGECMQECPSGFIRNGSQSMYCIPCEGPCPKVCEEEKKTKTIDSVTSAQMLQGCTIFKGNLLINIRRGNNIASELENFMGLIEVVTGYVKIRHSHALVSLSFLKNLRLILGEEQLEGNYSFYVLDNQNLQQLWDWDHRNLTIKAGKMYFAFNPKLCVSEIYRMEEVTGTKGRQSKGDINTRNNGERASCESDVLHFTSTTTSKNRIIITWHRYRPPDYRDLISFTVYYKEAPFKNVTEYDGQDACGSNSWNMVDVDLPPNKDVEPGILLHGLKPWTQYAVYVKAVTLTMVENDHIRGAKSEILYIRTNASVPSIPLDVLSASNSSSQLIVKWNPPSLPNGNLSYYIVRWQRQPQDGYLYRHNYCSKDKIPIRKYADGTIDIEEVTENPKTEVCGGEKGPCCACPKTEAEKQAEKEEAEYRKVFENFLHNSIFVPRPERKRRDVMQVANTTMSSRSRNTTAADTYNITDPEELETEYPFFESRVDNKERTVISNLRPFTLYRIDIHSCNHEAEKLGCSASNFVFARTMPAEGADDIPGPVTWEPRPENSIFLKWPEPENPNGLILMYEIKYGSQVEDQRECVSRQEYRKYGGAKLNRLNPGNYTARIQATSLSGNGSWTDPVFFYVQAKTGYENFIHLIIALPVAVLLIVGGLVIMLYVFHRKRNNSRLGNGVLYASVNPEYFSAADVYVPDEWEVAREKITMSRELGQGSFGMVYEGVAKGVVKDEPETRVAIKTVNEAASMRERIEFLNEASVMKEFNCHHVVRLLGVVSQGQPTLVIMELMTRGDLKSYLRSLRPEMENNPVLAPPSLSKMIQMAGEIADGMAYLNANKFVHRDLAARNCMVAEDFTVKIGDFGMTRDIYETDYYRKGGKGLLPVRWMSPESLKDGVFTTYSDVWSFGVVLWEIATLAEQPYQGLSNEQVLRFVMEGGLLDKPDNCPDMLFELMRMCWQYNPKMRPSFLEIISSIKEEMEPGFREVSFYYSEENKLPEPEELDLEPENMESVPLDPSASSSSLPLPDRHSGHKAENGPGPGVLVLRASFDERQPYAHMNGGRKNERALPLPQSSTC
Procedure, shortened: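 Mobility-shift readout of substrate conversion, normalised to positive (no compound) and negative (no kinase) controls, gives % inhibition and IC50 by four-parameter fit. Compounds, 3-fold dilutions over 10 concentrations starting at 3000 nM, preincubated 10 min with kinase before ATP/substrate start; room temperature.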

EGFRΔ19del/T790M/C797S = EGFRΔ19del/T790M/C797S (Homo sapiens, UniProt P00533, T790M/C797S, form not given); test: EGFR Δ19del/T790M/C797S kinase test (mobility variation analysis, Caliper EZ Reader); format: biochemical; details: kinase enzymatic activity, Table 1
Procedure, shortened: (§12)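 Read-out is substrate-to-product conversion by mobility shift, stopped after incubation at room temperature with ATP and substrate, following a 10-minute room-temperature compound–enzyme pre-incubation. IC50 obtained by four-parameter variable-slope fitting of inhibition normalized between enzyme-free and uninhibited controls.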

[2] = molecular target: Ba/F3 cells with EGFR Δ19del/T790M/C797S mutation gene stably overexpressed (Homo sapiens, UniProt P00533, T790M/C797S, cells depend on it, form not given); test: Ba/F3-Δ19del/T790M/C797S cell proliferation assay (CellTiter Glo, 72 hours); format: cell-based; details: Table 2, read-out: EGFR Δ19del/T790M/C797S IC50
Sequence of Ba/F3 cells with EGFR Δ19del/T790M/C797S mutation gene stably overexpressed (P00533 with tags, fused parts or gaps DEL746-750/T790M/C797S, form open): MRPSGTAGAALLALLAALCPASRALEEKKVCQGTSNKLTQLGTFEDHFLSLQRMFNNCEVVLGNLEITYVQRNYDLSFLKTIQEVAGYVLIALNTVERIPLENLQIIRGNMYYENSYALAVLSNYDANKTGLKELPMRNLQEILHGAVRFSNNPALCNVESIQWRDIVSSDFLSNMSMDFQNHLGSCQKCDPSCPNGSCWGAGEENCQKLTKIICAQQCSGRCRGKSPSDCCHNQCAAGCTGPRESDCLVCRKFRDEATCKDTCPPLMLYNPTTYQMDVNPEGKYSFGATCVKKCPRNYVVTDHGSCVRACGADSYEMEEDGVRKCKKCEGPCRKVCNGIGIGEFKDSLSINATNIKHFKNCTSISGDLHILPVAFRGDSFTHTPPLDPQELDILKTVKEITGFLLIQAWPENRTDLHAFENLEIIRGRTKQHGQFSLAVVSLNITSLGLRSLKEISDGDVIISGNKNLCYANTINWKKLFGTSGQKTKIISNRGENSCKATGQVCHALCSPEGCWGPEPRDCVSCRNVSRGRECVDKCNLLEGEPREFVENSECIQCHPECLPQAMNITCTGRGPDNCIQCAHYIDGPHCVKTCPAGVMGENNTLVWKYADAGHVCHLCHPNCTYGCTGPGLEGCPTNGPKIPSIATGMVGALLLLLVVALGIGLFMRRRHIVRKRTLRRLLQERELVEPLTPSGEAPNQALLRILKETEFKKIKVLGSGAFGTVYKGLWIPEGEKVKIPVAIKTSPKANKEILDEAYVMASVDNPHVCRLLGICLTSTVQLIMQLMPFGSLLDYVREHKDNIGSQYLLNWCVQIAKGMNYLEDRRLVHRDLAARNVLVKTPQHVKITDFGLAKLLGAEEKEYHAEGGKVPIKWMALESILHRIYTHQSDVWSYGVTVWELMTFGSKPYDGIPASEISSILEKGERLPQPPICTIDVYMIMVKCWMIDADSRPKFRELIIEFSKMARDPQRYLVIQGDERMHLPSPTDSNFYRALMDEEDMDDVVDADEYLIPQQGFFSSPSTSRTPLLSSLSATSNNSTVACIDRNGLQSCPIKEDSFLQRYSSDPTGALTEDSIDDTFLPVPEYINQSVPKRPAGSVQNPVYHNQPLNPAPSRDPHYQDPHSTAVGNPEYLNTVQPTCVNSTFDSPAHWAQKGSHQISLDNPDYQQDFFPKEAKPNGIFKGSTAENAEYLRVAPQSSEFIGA
Procedure, shortened: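 Ba/F3 cells stably overexpressing wild-type EGFR or EGFR Δ19del/T790M/C797S were seeded at 2000 cells/well and incubated 72 h with compound. Viability was read by CellTiter-Glo luminescence, and IC50 came from a four-parameter logistic fit of signal against log concentration.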

A431 = A431 cell proliferation assay (CellTiter Glo, 72 hours); format: cell-based; details: Homo sapiens, A-431, 72 h, cell proliferation, A431, 72 hours, Table 2; read-out: A431 IC50
Protocol: as §1
RPMI 1640 and 10% FBS and 1% PS; DMEM and 10% FBS and 1% PS.
a) Dilute the test compound (20 mM stock solution) to 10 mM with 100% DMSO as the starting concentration, and then serially dilute 3 times with a “9+0” concentration in 96-well dilution plate (Cat #P-05525, Labcyte);
b) Dilute compound solution thereof to 1:100 (1:20 for comparative compound 1 and compounds 1-38) in medium to prepare 10-fold working solution;
as §2, §3
a) Compounds prepared at step 2 were added to cell plate with 15 μl per well, the final concentrations were 1000, 333, 111.1, 37, 12.3, 4.1, 1.4, 0.5, 0.2 and 0 nM, and the final concentration of DMSO was 0.1%. The blank control well was a culture medium (0.1% DMSO) (the blank control well of comparative compound 1 and compounds 1-38 was a culture medium (0.5% DMSO).
as §4, §5, §6, §7, §8, §9
Fitting compound IC50 from nonlinear regression equation:
as §10, §11

EGFR WT = EGFR WT (Homo sapiens, UniProt P00533); test: EGFR WT kinase test (mobility variation analysis, Caliper EZ Reader); format: biochemical; details: kinase enzymatic activity, Table 1
Sequence of EGFR WT (P00533 25-1210): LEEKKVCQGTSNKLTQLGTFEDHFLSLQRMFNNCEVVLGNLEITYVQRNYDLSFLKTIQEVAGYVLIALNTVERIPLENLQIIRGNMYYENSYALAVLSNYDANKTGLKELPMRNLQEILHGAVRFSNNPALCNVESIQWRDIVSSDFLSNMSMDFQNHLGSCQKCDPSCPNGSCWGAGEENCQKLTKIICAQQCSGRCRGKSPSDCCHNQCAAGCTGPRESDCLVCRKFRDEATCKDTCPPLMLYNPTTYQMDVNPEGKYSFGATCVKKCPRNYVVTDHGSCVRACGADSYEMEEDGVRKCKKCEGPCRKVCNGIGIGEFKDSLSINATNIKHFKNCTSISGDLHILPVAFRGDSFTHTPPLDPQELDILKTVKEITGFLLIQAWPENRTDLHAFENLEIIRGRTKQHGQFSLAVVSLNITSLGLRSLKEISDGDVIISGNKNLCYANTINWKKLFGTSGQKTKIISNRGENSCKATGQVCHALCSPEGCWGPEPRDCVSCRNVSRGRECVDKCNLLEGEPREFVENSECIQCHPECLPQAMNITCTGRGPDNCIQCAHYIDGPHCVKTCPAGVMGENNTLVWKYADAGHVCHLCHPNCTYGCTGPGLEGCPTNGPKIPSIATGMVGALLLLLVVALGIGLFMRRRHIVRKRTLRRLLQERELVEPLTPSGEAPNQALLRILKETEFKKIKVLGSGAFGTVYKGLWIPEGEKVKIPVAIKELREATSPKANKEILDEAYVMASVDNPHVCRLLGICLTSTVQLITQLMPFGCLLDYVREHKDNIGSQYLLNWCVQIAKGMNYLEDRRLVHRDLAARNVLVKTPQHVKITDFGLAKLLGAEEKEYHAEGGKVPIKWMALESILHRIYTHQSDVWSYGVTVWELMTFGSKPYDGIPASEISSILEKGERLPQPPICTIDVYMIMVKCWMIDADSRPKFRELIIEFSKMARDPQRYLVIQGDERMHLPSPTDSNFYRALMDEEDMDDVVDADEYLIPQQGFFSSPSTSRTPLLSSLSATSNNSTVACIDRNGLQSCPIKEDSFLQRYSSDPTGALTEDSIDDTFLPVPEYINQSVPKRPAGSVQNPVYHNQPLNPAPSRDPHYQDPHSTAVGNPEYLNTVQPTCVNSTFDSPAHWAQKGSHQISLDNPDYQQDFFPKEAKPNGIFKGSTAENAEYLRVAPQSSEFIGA
Procedure, shortened: as §12

Sequence of Ba/F3-EGFR wild-type cell line (P00533 whole entry, stated change not applied): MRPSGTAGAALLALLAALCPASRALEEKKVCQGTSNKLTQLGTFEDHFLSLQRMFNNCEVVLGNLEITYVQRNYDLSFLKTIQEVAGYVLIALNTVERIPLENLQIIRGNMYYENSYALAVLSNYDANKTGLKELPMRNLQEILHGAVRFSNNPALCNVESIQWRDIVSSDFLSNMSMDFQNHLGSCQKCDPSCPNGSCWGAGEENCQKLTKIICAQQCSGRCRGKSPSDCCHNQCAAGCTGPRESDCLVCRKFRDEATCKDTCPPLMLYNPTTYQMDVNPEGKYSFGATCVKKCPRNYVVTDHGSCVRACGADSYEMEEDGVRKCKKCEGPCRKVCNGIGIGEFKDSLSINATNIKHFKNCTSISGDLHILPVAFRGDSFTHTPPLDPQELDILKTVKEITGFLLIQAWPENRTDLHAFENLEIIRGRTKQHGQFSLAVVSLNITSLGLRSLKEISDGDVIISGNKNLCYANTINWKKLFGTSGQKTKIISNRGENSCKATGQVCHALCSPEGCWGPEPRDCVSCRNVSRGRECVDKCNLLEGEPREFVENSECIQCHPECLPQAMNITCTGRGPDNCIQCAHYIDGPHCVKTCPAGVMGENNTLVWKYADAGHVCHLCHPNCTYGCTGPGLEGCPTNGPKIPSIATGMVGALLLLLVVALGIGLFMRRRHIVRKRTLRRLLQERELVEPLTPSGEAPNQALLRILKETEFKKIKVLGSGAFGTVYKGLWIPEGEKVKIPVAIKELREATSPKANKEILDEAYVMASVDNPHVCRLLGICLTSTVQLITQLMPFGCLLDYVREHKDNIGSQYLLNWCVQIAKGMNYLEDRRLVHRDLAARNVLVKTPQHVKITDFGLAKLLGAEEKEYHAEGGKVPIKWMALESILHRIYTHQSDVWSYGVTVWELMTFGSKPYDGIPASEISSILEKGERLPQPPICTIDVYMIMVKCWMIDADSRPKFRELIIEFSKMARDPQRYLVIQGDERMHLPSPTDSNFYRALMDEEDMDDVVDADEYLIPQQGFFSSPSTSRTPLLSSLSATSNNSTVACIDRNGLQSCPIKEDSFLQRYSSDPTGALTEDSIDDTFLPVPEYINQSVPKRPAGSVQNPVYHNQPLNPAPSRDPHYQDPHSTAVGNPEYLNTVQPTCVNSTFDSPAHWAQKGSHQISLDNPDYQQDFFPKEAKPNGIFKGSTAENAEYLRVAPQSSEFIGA

Compound	GI50 [1] [nM]	IC50 (IGF1R) [nM]	IC50 (EGFRΔ19del/T790M/C797S) [nM]	GI50 [2] [nM]	IC50 (A431) [nM]	IC50 (EGFR WT) [nM]
CCc1cc(Nc2ncc(Br)c(Nc3ccc(-c4cnc(C)c(C)n4)cc3P(C)(C)=O)n2)c(OC)cc1N1CCC(N2CCN(C)CC2)CC1 [Compound K-067, (2-((5-Bromo-2-((5-ethyl-2-methoxy-4-(4-(4-methylpiperazin-1-/l)piperidin-1-yl)phenyl)amino)pyrimidin-4-yl)amino)-5-(5,6-dimethylpyrazin-2-yl)phenyl)dimethylphosphine oxide]	417	–	–	–	–	–
CCc1cc(Nc2ncc(Br)c(Nc3ccc(-c4ccc(C)nc4)cc3P(C)(C)=O)n2)c(OC)cc1N1CCC(N2CCN(C)CC2)CC1 [Compound K-070, (2-((5-Bromo-2-((5-ethyl-2-methoxy-4-(4-(4-methylpiperazin-1-yl)piperidin-1-yl)phenyl)amino)pyrimidin-4-yl)amino)-5-(6-methylpyridin-3-yl)phenyl)dimethylphosphine oxide]	238	–	–	–	–	–
CCc1cc(Nc2ncc(Br)c(Nc3ccc(-c4cnc(C5CC5)cn4)cc3P(C)(C)=O)n2)c(OC)cc1N1CCC(N2CCN(C)CC2)CC1 [Compound K-064, (2-((5-Bromo-2-((5-ethyl-2-methoxy-4-(4-(4-methylpiperazin-1-yl)piperidin-1-yl)phenyl)amino)pyrimidin-4-yl)amino)-5-(5-cyclopropylpyrazin-2-yl)phenyl)dimethylphosphine oxide]	152	–	–	–	–	–
CCc1cc(Nc2ncc(Br)c(Nc3ccc(-c4ncc(C(C)C)cn4)cc3P(C)(C)=O)n2)c(OC)cc1N1CCC(N2CCN(C)CC2)CC1 [Compound K-056, (2-((5-Bromo-2-((5-ethyl-2-methoxy-4-(4-(4-methylpiperazin-1-yl)piperidin-1-yl)phenyl)amino)pyrimidin-4-yl)amino)-5-(5-isopropylpyrimidin-2-yl)phenyl)dimethylphosphine oxide]	524	–	–	–	–	–
CCOc1ncc(-c2ccc(Nc3nc(Nc4cc(CC)c(N5CCC(N6CCN(C)CC6)CC5)cc4OC)ncc3Br)c(P(C)(C)=O)c2)cn1 [Compound 76]	–	114	0.3	37.4	1520	36
CCOc1ncc(-c2ccc(Nc3nc(Nc4cc(CC)c(N5CCC(N6CCN(C)CC6)CC5)cc4OC)ncc3Br)c(P(C)(C)=O)c2)cn1 [Compound K-059, (2-((5-Bromo-2-((5-ethyl-2-methoxy-4-(4-(4-methylpiperazin-1-yl)piperidin-1-yl)phenyl)amino)pyrimidin-4-yl)amino)-5-(2-ethoxypyrimidin-5-yl)phenyl)dimethylphosphine oxide]	352	–	–	–	–	–
CCc1cc(Nc2ncc(Br)c(Nc3ccc(-c4ncc(C)cn4)cc3P(C)(C)=O)n2)c(OC)cc1N1CCC(N2CCN(C)CC2)CC1 [Compound 21, (2-((5-Bromo-2-((5-ethyl-2-methoxy-4-(4-(4-methylpiperazin-1-yl)piperidin-1-yl)phenyl)amino)pyrimidin-4-yl)amino)-5-(5-methylpyrimidin-2-yl)phenyl)dimethylphosphine oxide]	–	224	0.7	8.8	1390	25.6
CCc1cc(Nc2ncc(Br)c(Nc3ccc(-c4ncc(C(C)C)cn4)cc3P(C)(C)=O)n2)c(OC)cc1N1CCC(N2CCN(C)CC2)CC1 [Compound 73, (2-((5-Bromo-2-((5-ethyl-2-methoxy-4-(4-(4-methylpiperazin-1-yl)piperidin-1-yl)phenyl)amino)pyrimidin-4-yl)amino)-5-(5-isopropylpyrimidin-2-yl)phenyl)dimethylphosphine oxide]	–	223	0.9	39.5	1530	38
CCc1cc(Nc2ncc(Br)c(Nc3ccc(-c4nccs4)cc3P(C)(C)=O)n2)c(OC)cc1N1CCC(N2CCN(C)CC2)CC1 [Compound 12, (2-((5-Bromo-2-((5-ethyl-2-methoxy-4-(4-(4-methylpiperazin-1-yl)piperidin-1-yl)phenyl)amino)pyrimidin-4-yl)amino)-5-(thiazol-2-yl)phenyl)dimethylphosphine oxide]	–	310	1.1	10.7	989	13
CCc1cc(Nc2ncc(Br)c(Nc3ccc(-c4ccc(N(C)C)nn4)cc3P(C)(C)=O)n2)c(OC)cc1N1CCC(N2CCN(C)CC2)CC1 [Compound 37, (2-((5-Bromo-2-((5-ethyl-2-methoxy-4-(4-(4-methylpiperazin-1-yl)piperidin-1-yl)phenyl)amino)pyrimidin-4-yl)amino)-5-(6-(dimethylamino)pyridazin-3-yl)phenyl)dimethylphosphine oxide]	–	263	0.3	17.4	> 10000	28.8
CCc1cc(Nc2ncc(Cl)c(Nc3ccc(-c4nn(C)cc4C#N)cc3P(C)(C)=O)n2)c(OC)cc1N1CCC(N2CCN(C)CC2)CC1 [Compound K-060, 3-(4-((5-Chloro-2-((5-ethyl-2-methoxy-4-(4-(4-methylpiperazin-1-yl)piperidin-1-yl)phenyl)amino)pyrimidin-4-yl)amino)-3-(dimethylphosphineoxide)phenyl)-1-methyl-1H-pyrazol-4-carbonitrile]	293	–	–	–	–	–
CCc1cc(Nc2ncc(Br)c(Nc3ccc(-c4cnc(C)cn4)cc3P(C)(C)=O)n2)c(OC)cc1N1CCC(N2CCN(C)CC2)CC1 [Compound 80, (2-((5-Bromo-2-((5-ethyl-2-methoxy-4-(4-(4-methylpiperazin-1-yl)piperidin-1-yl)phenyl)amino)pyrimidin-4-yl)amino)-5-(5-methylpyrazin-2-yl)phenyl)dimethylphosphine oxide]	–	81	0.2	8.2	4610	12.8
CCc1cc(Nc2ncc(Br)c(Nc3ccc(-c4ccc(C5CC5)nn4)cc3P(C)(C)=O)n2)c(OC)cc1N1CCC(N2CCN(C)CC2)CC1 [Compound 36, (2-((5-Bromo-2-((5-ethyl-2-methoxy-4-(4-(4-methylpiperazin-1-yl)piperidin-1-yl)phenyl)amino)pyrimidin-4-yl)amino)-5-(6-cyclopropylpyridazin-3-yl)phenyl)dimethylphosphine oxide]	–	219	0.2	22.3	4640	35.5
CCc1cc(Nc2ncc(Br)c(Nc3ccc(-c4ncc(OC)cn4)cc3P(C)(C)=O)n2)c(OC)cc1N1CCC(N2CCN(C)CC2)CC1 [Compound 30]	–	118	0.2	15.2	8870	20.7
CCc1cc(Nc2ncc(Cl)c(Nc3ccc(-c4cscn4)cc3P(C)(C)=O)n2)c(OC)cc1N1CCC(N2CCN(C)CC2)CC1 [Compound 14, (2-((5-Chloro-2-((5-ethyl-2-methoxy-4-(4-(4-methylpiperazin-1-yl)piperidin-1-yl)phenyl)amino)pyrimidin-4-yl)amino)-5-(thiazol-4-yl)phenyl)dimethylphosphine oxide]	–	149	0.4	14.5	769	13.9
CCc1cc(Nc2ncc(Br)c(Nc3ccc(-c4ccc(F)cc4F)cc3P(C)(C)=O)n2)c(OC)cc1N1CCC(N2CCN(C)CC2)CC1 [Compound 6, (4-((5-Bromo-2-((5-ethyl-2-methoxy-4-(4-(4-methylpiperazin-1-yl)piperidin-1-yl)phenyl)amino)pyrimidin-4-yl)amino)-2′,4′-difluoro-[1,1′-biphenyl]-3-yl)dimethylphosphine oxide]	–	147	0.9	21.4	> 10000	16.7
